Test results reported in US20210038668A1, “TRADITIONAL CHINESE MEDICINE COMPOSITION FOR PREVENTING AND/OR TREATING ISCHEMIC REPERFUSION INJURY” (TASLY PHARMACEUTICAL GROUP CO., LTD., priority 2018, published 2021).

Key:
Type in all cases: in vivo, C57BL/6 mice
[1] = system: mice with carotid artery thrombus; experiment: Neurological scoring, 15-score standard, mice; conditions: 24 hours after administration; normal = 15, dead = 0; tPA 10 mg/kg alone; T541 20 mg/kg, T141 12 mg/kg, T582 15 mg/kg each + tPA 10 mg/kg
Experimental: Neurological scoring was conducted to each group of mice after reperfused for 24 hours based upon scoring standards (15 scores) (Garcia J H et al. Stroke. 1995; 26:627-634.) with slight modification:
Mice capacity of autonomic activity: mice were put into a 25×15 cm cage to record their motion trails within 3 minutes; mice incapable of moving basically were denoted as 0; mice with little activity and not touching any wall of the cage were denoted as 1; mice touching any […] were denoted as 2; mice touching three walls and above were denoted as 3;
Mice limbs symmetry experiment: mice tails were lifted to observe the motion trails of their bodies; mice with completely asymmetric bodies were denoted as 0; mice with almost asymmetrical bodies were denoted as 1; mice with moderately asymmetrical bodies were denoted as 2; mice with almost symmetric bodies were denoted as 3;
Measurement of open field test: free motion of mice was observed; mice without any motion were denoted as 0; mice circling around were denoted as 1; mice tilting to one side to make curvilinear motion were denoted as 2; mice making rectilinear motion were denoted as 3; […]
Mice neurological scoring: a sum of the individual score of the above five experiments is calculated; 15 scores denote normal mice and 0 denote dead mice.

[2] = system: mice with carotid artery thrombus; experiment: Survival rate within 24 hours after administration; conditions: tPA 10 mg/kg alone
Experimental: Mice were anesthetized via intraperitoneal injection by pentobarbital sodium (2%, 45 mg/kg), and neck kin was sterilized. A median incision was cut on the neck, exposed and isolated to obtain arteria carotis communis; a waterproof cushion was used to isolate arteria carotis communis with the length of about 2.5-3 mm from surrounding tissues. The isolated arteria carotis communis was wrapped by a filter paper soaked by 10% FeCl3 for about 1 mm (width), and the filter paper was removed 3 minutes later, the outside of blood vessel was washed by 0.9% normal saline. The waterproof cushion was removed. The neck incision was sutured. The start of Fe3+ stimulation was defined as the beginning of ischemia, and those mice meeting the following conditions were selected into the group: the blood vessel was blocked at the maximum diameter of the neck thrombus 10 minutes after ischemia; the blood flow of the carotid artery distal end was less than 20% of the base value 15 minutes after ischemia; and the thrombus was stable 4.5 hours after ischemia (before reperfusion); the carotid artery vessel at 60% and more of the diameter was blocked by the maximum diameter of the thrombus.
Mice were treated by medicaments or normal saline according to random grouping results 4.5 hours after ischemia. Mice femoral vein was intubated, and left femoral vein was injected tPA (tissue plasminogen activator) or normal saline; right femoral vein was injected the traditional Chinese medicinal composition of the present invention or normal saline; 10% of the total dose was injected via an injection pump, and the rest 90% were continuously injected intravenously for 1 hour with the rate of 0.1 ml/h. Three proportion groups were selected to the traditional Chinese medicinal composition of the present invention respectively below:
The survival rate, neurological scoring, change of carotid artery ischemia size and change of cerebral blood flow perfusion of mice after reperfused for 24 hours were recorded; and the optimal drug concentration was selected for further analysis.

[3] = system: mitochondrial complex II; experiment: Mitochondrial complex II activity in brain tissue; conditions: brain tissue 24 hours after administration; tPA 10 mg/kg alone or + T541 20 mg/kg or ingredients at Table 7 doses
Source text: (§1) To compare the therapeutical effect on reperfusion injury caused by tPA thrombolysis between the traditional Chinese medicinal composition of the present invention and each ingredient (total saponins of Astragalus, the experiment was divided into the following group (tPA is combined with T541, individual ingredient thereof and compatibility of any two ingredients) specifically as follows: tPA+total saponins of Astragalus (tPA+HQ), tPA+ salvianolic acids (tPA+DS), tPA+Panax notoginseng saponins (tPA+SQ), tPA+ total saponins of Astragalus+salvianolic acids (tPA+HQ+DS), tPA+ total saponins of Astragalus+Panax notoginseng saponins (tPA+HQ+SQ), tPA+ salvianolic acids+Panax notoginseng saponins (tPA+DS+SQ) and tPA+T541. Normal saline served as an isovolumetric control. The usage number in each group is 6.
(§2) ELISA adsorption kit was used to measure the change on the content of MDA, 8-hydroxyl-2′-deoxyguanosine (8-OHdG), adenosine triphosphate (ATP), adenosine diphosphate (ADP) and adenosine monophosphate (AMP) in the penumbra field of brain tissue cortex of the mode, and the change on the activity of mitochondrial complexes I, II, IV and V. 6 samples were used to repeat the independent experiment for at least three times for each group of data.

[4] = system: cerebral infarction; experiment: TTC infarct size, mice after thrombolysis; conditions: 24 h after administration, tPA 10 mg/kg alone, T541 20 mg/kg + tPA 10 mg/kg
Experimental: After reperfused for 24 hours, mice were perfused via heart by a PBS buffer precooled at 4° C. and separated brain via craniotomy; the brain was cut from front to back into 5 slices in a brain stereotaxic apparatus; bleeding condition was rapidly shoot in cold condition; then slices were put into 2% triphenyltetrazolium chloride, TTC for incubation for 15 minutes at […]; TTC staining was conducted. Non-infarct region was stained red and infarct region was not stained and still white. Brain TTC staining images were shoot and IamgeJ (Bethesda, Md., USA) was used to calculate a percentage of TTC staining infarct size in the total area of brain, and evaluate the degree of cerebral infarction.

[5] = system: mitochondrial complex IV; experiment: Mitochondrial complex IV activity in brain tissue; conditions: brain tissue 24 hours after administration; tPA 10 mg/kg alone or + T541 20 mg/kg or ingredients at Table 7 doses
Source text: as §1, §2

[6] = T141 12 mg/kg, T582 15 mg/kg each + tPA 10 mg/kg
[7] = T541 20 mg/kg, T141 12 mg/kg, T582 15 mg/kg each + tPA 10 mg/kg

Substance: tPA: tissue-type plasminogen activator (tPA) for thrombolysis
- Neurological scoring, 15-score standard [1]: 5.82 ± 0.52
- survival rate (%), 6 h after administration [2, 6]: 70.00%
- survival rate (%), 12 h after administration [2, 6]: 60.00%
- survival rate (%), 18 h after administration ([2]; T541 20 mg/kg + tPA 10 mg/kg): 50.00%
- survival rate (%), 0 h after administration [2, 7]: 100.00%
- survival rate (%), 24 h after administration [2, 7]: 50%
- Complex II activity [3]: 0.025 ± 0.005
- Infarct size [4]: 15.68 ± 4.81
- Complex IV activity [5]: 0.267 ± 0.016
